The record followed here is US20100040620A1, “ANTI-CANCER ANTIBODIES AGAINST LEWISy AND LEWISb ANTIGENS” (priority 2006, published 2010).

The subject of the experiment is C170 xenografts. As to the kind of experiment: Prevention model, C170 xenografts. It counts as in vivo. Conditions: SC101/29 0.2 mg ip 3 times weekly; 5-FU/leucovorin 12.5 mg/kg iv; days 12-23; p<0.004 ANOVA alone, p<0.02 combination. As to the method: Prevention model. The colorectal tumour cell line, C170 was maintained in serial passage in nude mice. For therapy the mice were sacrificed and the tumours excised. The tumour was finely minced and 3 mm^2 pieces were implanted, under anaesthetic (Hypnorm, Roche/Hypnovel, Jannsen), subcutaneously, into 40 male mice which had been randomly allocated to 4 experimental groups. A group of mice were treated with 5-FU/leucovorin (12.5 mg/kg) by intravenous (iv) injection on days 1, 3, 5, 7, 21 and 22. Three times weekly mice were also injected intraperitoneally (ip) with 0.2 mg of SC101/29 mAb. Control mice received either SC101/29 mAb, 5-FU/leucovorin or vehicle alone. Tumour size was measured by callipers and tumour cross-sectional area calculated on days 12, 16, 19 and 23. At the termination of the experiment tumours were weighed to assess anti-tumour efficacy. Animals were weighed to assess the toxicity of treatment.

Consider 5-FU/leucovorin, for which the “tumour growth of freshly explanted C170 tumours (cross-sectional area)” value is listed as “inhibition of tumour growth”.
